Results as given in patent US10765662B2, “Mono- or di-substituted indole derivatives as dengue viral replication inhibitors” (Janssen Pharmaceuticals, Inc., priority 2015, dated 2020).
pEC50: −log10 of the molar value.

Tests used:
in vitro = assay type: cell-based; details: African green monkey, CC50
Protocol: (§1) In parallel, the toxicity of the compounds was assessed on the same plates. Once the read-out for the eGFP signal was done, 40 μL of ATPlite, a cell viability stain, was added to all wells of the 384-well plates. ATP is present in all metabolically active cells and the concentration declines very rapidly when the cells undergo necrosis or apoptosis. The ATPLite assay system is based on the production of light caused by the reaction of ATP with added luciferase and D-luciferin. The plates were incubated for 10 minutes at room temperature. Next, the plates were measured on a ViewLux. The half maximal cytotoxic concentration (CC50) was also determined, defined as the concentration required to reduce the luminescent signal by 50% compared to that of the cell control wells. Finally, the selectivity index (SI) was determined for the compounds, which was calculated as followed: SI=CC50/EC50.

[1] = system: DENV-2 16681 strain labeled with enhanced green fluorescent protein; assay: DENV-2 antiviral assay (eGFP fluorescence read-out in Vero cells); assay type: cell-based, Dengue virus; details: DENV-2 16681 eGFP, MOI 0.5, 3 days
Protocol: The antiviral activity of all the compounds of the invention was tested against the DENV-2 16681 strain which was labeled with enhanced green fluorescent protein (eGPF). The culture medium consists of minimal essential medium supplemented with 2% of heat-inactivated fetal calf serum, 0.04% gentamycin (50 mg/mL) and 2 mM of L-glutamine. Vero cells, obtained from ECACC, were suspended in culture medium and 25 μL was added to 384-well plates (2500 cells/well), which already contain the antiviral compounds. Typically, these plates contain a 5-fold serial dilution of 9 dilution steps of the test compound at 200 times the final concentration in 100% DMSO (200 nL). […] Finally, each plate contains wells which are assigned as virus controls (containing cells and virus in the absence of compound), cell controls (containing cells in the absence of virus and compound) and medium controls (containing medium in the absence of cells, virus and compounds). To the wells assigned as medium control, 25 μL of culture medium was added instead of Vero cells. Once the cells were added to the plates, the plates were incubated for 30 minutes at room temperature to allow the cells to distribute evenly within the wells. Next, the plates were incubated in a fully humidified incubator (37° C., 5% CO2) until the next day. Then, DENV-2 strain 16681, labeled with eGFP, was added at a multiplicity of infection (MOI) of 0.5. Therefore, 15 μL of virus suspension was added to all the wells containing test compound and to the wells assigned as virus control. In parallel, 15 μL of culture medium was added to the medium and cell controls. Next, the plates were incubated for 3 days in a fully humidified incubator (37° C., 5% CO2). At the day of the read out, the eGFP fluorescence was measured using an automated fluorescence microscope at 488 nm (blue laser). Using an in-house LIMS system, inhibition dose response curves for each compound were calculated and the half maximal effective concentration (EC50) was determined. Therefore, the percent inhibition (I) for every test concentration is calculated using the following formula: I=100*([…])/(SVC−SCC); ST, SCC and SVC are the amount of eGFP signal in the test compound, cell control and virus control wells, respectively. The EC50 represents the concentration of a compound at which the virus replication is inhibited with 50%, as measured by a 50% reduction of the eGFP fluorescent intensity compared to the virus control. The EC50 is calculated using linear interpolation (Table 1).

Vero cells = assay: in vitro; assay type: cell-based; details: African green monkey
Protocol: as §1

[2] = Dengue virus, DENV2, Vero, 72 h

SMILES | CC50 (in vitro) | pEC50 [1] | CC50 (Vero cells) | pEC50 [1, 2]
COc1cc(NC(C(=O)c2c[nH]c3cc(OC)c(OC(F)(F)F)cc23)c2ccc(Cl)cc2OCCO)cc(S(C)(=O)=O)c1 (single isomer, unassigned) [Compound 11A, 2-(4-chloro-2-(2-hydroxyethoxy)phenyl)-2-((3-methoxy-5-(methylsulfonyl)phenyl)amino)-1-(6-methoxy-5-(trifluoromethoxy)-1H-indol-3-yl)ethanone] | > 2300 nM | 8.82 |  | 
COc1cc(NC(C(=O)c2c[nH]c3cc(OC)ccc23)c2ccc(Cl)cc2OCCO)cc(S(C)(=O)=O)c1 (single isomer, unassigned) [Compound 3B, 2-(4-chloro-2-(2-hydroxyethoxy)phenyl)-1-(6-methoxy-1H-indol-3-yl)-2-((3-methoxy-5-(methylsulfonyl)phenyl)amino)ethanone] |  | 7.25 | 13000 nM | 
COc1cc(NC(C(=O)c2c[nH]c3cc(F)c(C)cc23)c2ccc(Cl)cc2OCCO)cc(S(C)(=O)=O)c1 (single isomer, unassigned) [Compound 8B, 2-(4-chloro-2-(2-hydroxyethoxy)phenyl)-1-(6-fluoro-5-methyl-1H-indol-3-yl)-2-((3-methoxy-5-(methylsulfonyl)phenyl)amino)ethanone] |  | 8.77 | > 2400 nM | 
COc1cc(NC(C(=O)c2c[nH]c3ccc(C(F)(F)F)cc23)c2ccc(Cl)cc2OCCO)cc(S(C)(=O)=O)c1 (single isomer, unassigned) [Compound 9A, 2-(4-chloro-2-(2-hydroxyethoxy)phenyl)-2-((3-methoxy-5-(methylsulfonyl)phenyl)amino)-1-(5-(trifluoromethyl)-1H-indol-3-yl)ethanone] |  | 8.72 | 11000 nM | 
COc1cc(NC(C(=O)c2c[nH]c3cc(F)c(F)cc23)c2ccc(Cl)cc2OCCO)cc(S(C)(=O)=O)c1 (racemic) [Compound 7, 2-(4-chloro-2-(2-hydroxyethoxy)phenyl)-1-(5,6-difluoro-1H-indol-3-yl)-2-((3-methoxy-5-(methylsulfonyl)phenyl)amino)ethanone] | 2800 nM |  |  | 9.59
COc1cc(NC(C(=O)c2c[nH]c3cc(OC)c(C)cc23)c2ccc(Cl)cc2OCCO)cc(S(C)(=O)=O)c1 (single isomer, unassigned) [Compound 6B, 2-(4-chloro-2-(2-hydroxyethoxy)phenyl)-2-((3-methoxy-5-(methylsulfonyl)phenyl)amino)-1-(6-methoxy-5-methyl-1H-indol-3-yl)ethanone] |  | 7.44 | 5900 nM | 
COc1cc(NC(C(=O)c2c[nH]c3c(C)c(Cl)ccc23)c2ccc(Cl)cc2OCCO)cc(S(C)(=O)=O)c1 (single isomer, unassigned) [Compound 5A, 2-(4-chloro-2-(2-hydroxyethoxy)phenyl)-1-(6-chloro-7-methyl-1H-indol-3-yl)-2-((3-methoxy-5-(methylsulfonyl)phenyl)amino)ethanone] | 5000 nM | 8.08 |  | 
COc1cc(NC(C(=O)c2c[nH]c3c(C)cc(OC(F)(F)F)cc23)c2ccc(Cl)cc2OCCO)cc(S(C)(=O)=O)c1 (single isomer, unassigned) [Compound 12A, 2-(4-chloro-2-(2-hydroxyethoxy)phenyl)-2-((3-methoxy-5-(methylsulfonyl)phenyl)amino)-1-(7-methyl-5-(trifluoromethoxy)-1H-indol-3-yl)ethanone] | 2500 nM | 8.30 |  | 
COc1cc(NC(C(=O)c2c[nH]c3cc(F)c(C)cc23)c2ccc(Cl)cc2OCCO)cc(S(C)(=O)=O)c1 (racemic) [Compound 8, 2-(4-chloro-2-(2-hydroxyethoxy)phenyl)-1-(6-fluoro-5-methyl-1H-indol-3-yl)-2-((3-methoxy-5-(methylsulfonyl)phenyl)amino)ethanone] | 2800 nM |  |  | 9.57
COc1cc(NC(C(=O)c2c[nH]c3c(C)cc(OC(F)(F)F)cc23)c2ccc(Cl)cc2OCCO)cc(S(C)(=O)=O)c1 (racemic) [Compound 12, 2-(4-chloro-2-(2-hydroxyethoxy)phenyl)-2-((3-methoxy-5-(methylsulfonyl)phenyl)amino)-1-(7-methyl-5-(trifluoromethoxy)-1H-indol-3-yl)ethanone] | 2500 nM |  |  | 10.00
COc1cc(NC(C(=O)c2c[nH]c3cc(F)ccc23)c2ccc(Cl)cc2OCCO)cc(S(C)(=O)=O)c1 (single isomer, unassigned) [Compound 1B, 2-(4-chloro-2-(2-hydroxyethoxy)phenyl)-1-(6-fluoro-1H-indol-3-yl)-2-((3-methoxy-5-(methylsulfonyl)phenyl)amino)ethanone] |  | 8.46 | 8400 nM | 
COc1cc(NC(C(=O)c2c[nH]c3cc(OC)c(C)cc23)c2ccc(Cl)cc2OCCO)cc(S(C)(=O)=O)c1 (racemic) [Compound 6, 2-(4-chloro-2-(2-hydroxyethoxy)phenyl)-2-((3-methoxy-5-(methylsulfonyl)phenyl)amino)-1-(6-methoxy-5-methyl-1H-indol-3-yl)ethanone] | 4700 nM |  |  | 9.43
COc1cc(NC(C(=O)c2c[nH]c3cc(F)c(F)cc23)c2ccc(Cl)cc2OCCO)cc(S(C)(=O)=O)c1 (single isomer, unassigned) [Compound 7B, 2-(4-chloro-2-(2-hydroxyethoxy)phenyl)-1-(5,6-difluoro-1H-indol-3-yl)-2-((3-methoxy-5-(methylsulfonyl)phenyl)amino)ethanone] |  | 8.30 | 9200 nM | 
COc1cc(NC(C(=O)c2c[nH]c3ccc(OC(F)(F)F)cc23)c2ccc(Cl)cc2OCCO)cc(S(C)(=O)=O)c1 (racemic) [Compound 10, 2-(4-chloro-2-(2-hydroxyethoxy)phenyl)-2-((3-methoxy-5-(methylsulfonyl)phenyl)amino)-1-(5-(trifluoromethoxy)-1H-indol-3-yl)ethanone] | > 2400 nM |  |  | 10.00
COc1cc(NC(C(=O)c2c[nH]c3ccc(OC(F)(F)F)cc23)c2ccc(Cl)cc2OCCO)cc(S(C)(=O)=O)c1 (single isomer, unassigned) [Compound 10A, 2-(4-chloro-2-(2-hydroxyethoxy)phenyl)-2-((3-methoxy-5-(methylsulfonyl)phenyl)amino)-1-(5-(trifluoromethoxy)-1H-indol-3-yl)ethanone] | 2300 nM | 8.54 |  | 
COc1cc(NC(C(=O)c2c[nH]c3c(C)c(F)ccc23)c2ccc(Cl)cc2OCCO)cc(S(C)(=O)=O)c1 (single isomer, unassigned) [Compound 4B, 2-(4-chloro-2-(2-hydroxyethoxy)phenyl)-1-(6-fluoro-7-methyl-1H-indol-3-yl)-2-((3-methoxy-5-(methylsulfonyl)phenyl)amino)ethanone] |  | 7.96 | 5700 nM | 
COc1cc(NC(C(=O)c2c[nH]c3cc(Cl)ccc23)c2ccc(Cl)cc2OCCO)cc(S(C)(=O)=O)c1 (single isomer, unassigned) [Compound 2B, 1-(6-chloro-1H-indol-3-yl)-2-(4-chloro-2-(2-hydroxyethoxy)phenyl)-2-((3-methoxy-5-(methylsulfonyl)phenyl)amino)ethanone] |  | 8.31 | 11000 nM | 
COc1cc(NC(C(=O)c2c[nH]c3cc(F)ccc23)c2ccc(Cl)cc2OCCO)cc(S(C)(=O)=O)c1 (racemic) [Compound 1, 2-(4-chloro-2-(2-hydroxyethoxy)phenyl)-1-(6-fluoro-1H-indol-3-yl)-2-((3-methoxy-5-(methylsulfonyl)phenyl)amino)ethanone] | 5100 nM |  |  | 9.37
